Legend:
[1] = tested on: S. aureus (ATCC 29213); experiment: Bacterial assay: MIC against S. aureus; format: cell-based, Staphylococcus aureus; details: Staphylococcus aureus, ATCC29213, read-out: minimal inhibitory concentration (MIC)
[2] = tested on: S. pyogenes (ATCC 51339); experiment: Bacterial assay: MIC against S. pyogenes; format: cell-based, Streptococcus pyogenes; details: Streptococcus pyogenes, ATCC51339, read-out: minimal inhibitory concentration (MIC)
[3] = tested on: H. influenzae (ATCC 49247); experiment: Bacterial assay: MIC against H. influenzae; format: cell-based; details: Haemophilus influenzae, ATCC49247; H. influenzae ATCC 49247; read-out: minimal inhibitory concentration (MIC)

SMILES | MIC [1] | MIC [2] | MIC [3]
CCNC(=O)Nc1nc2cc(-c3cnc([C@H](C)OC(=O)[C@H](N)C(C)C)nc3)cc(-c3ccccn3)c2s1 [Compound 63, [(1S)-1-[5-[2-(ethylcarbamoylamino)-7-(2-pyridyl)-1,3-benzothiazol-5-yl]pyrimidin-2-yl]ethyl] (2R)-2-amino-3-methyl-butanoate] | ≤ 1 µg/mL | ≤ 1 µg/mL | ≤ 2 µg/mL
CCNC(=O)Nc1nc2cc(-c3cnc(C(C)O)nc3)cc(-c3cc(CN4CC[C@H](F)C4)ccn3)c2s1 (stereo partly drawn) [Compound 64, 1-ethyl-3-[7-[4-[[(3S)-3-fluoropyrrolidin-1-yl]methyl]-2-pyridyl]-5-[2-(1-hydroxyethyl)pyrimidin-5-yl]-1,3-benzothiazol-2-yl]urea] | ≤ 1 µg/mL | ≤ 1 µg/mL | ≤ 2 µg/mL
CCNC(=O)Nc1nc2cc(-c3cnc(C(C)O)nc3)cc(-c3cc(CN4CCOCC4C)ccn3)c2s1 (stereo not drawn) [Compound 68, 1-ethyl-3-[5-[2-(1-hydroxyethyl)pyrimidin-5-yl]-7-[4-[(3-methylmorpholin-4-yl)methyl]-2-pyridyl]-1,3-benzothiazol-2-yl]urea] | ≤ 1 µg/mL | ≤ 1 µg/mL | ≤ 2 µg/mL
CCNC(=O)Nc1nc2cc(-c3cnc(C(C)O)nc3)cc(-c3cc(CN4C[C@@H](C)O[C@@H](C)C4)ccn3)c2s1 (stereo partly drawn) [Compound 69, 1-[7-[4-[[(2R,6S)-2,6-dimethylmorpholin-4-yl]methyl]-2-pyridyl]-5-[2-(1-hydroxyethyl)pyrimidin-5-yl]-1,3-benzothiazol-2-yl]-3-ethyl-urea] | ≤ 1 µg/mL | ≤ 1 µg/mL | ≤ 2 µg/mL
[2H]C1([2H])OC([2H])([2H])C([2H])([2H])N(Cc2ccnc(-c3cc(-c4cnc(C(C)O)nc4)cc4nc(NC(=O)NCC)sc34)c2)C1([2H])[2H] (stereo not drawn) [Compound 70, 1-ethyl-3-[5-[2-(1-hydroxyethyl)pyrimidin-5-yl]-7-[4-[(2,2,3,3,5,5,6,6-octadeuteriomorpholin-4-yl)methyl]-2-pyridyl]-1,3-benzothiazol-2-yl]urea] | ≤ 1 µg/mL | ≤ 1 µg/mL | ≤ 2 µg/mL
CCNC(=O)Nc1nc2cc(-c3cnc(C(C)O)nc3)cc(-c3cc(CN4CC(C)OCC4C)ccn3)c2s1 (stereo not drawn) [Compound 71, 1-[7-[4-[(2,5-dimethylmorpholin-4-yl)methyl]-2-pyridyl]-5-[2-(1-hydroxyethyl)pyrimidin-5-yl]-1,3-benzothiazol-2-yl]-3-ethyl-urea] | ≤ 1 µg/mL | ≤ 1 µg/mL | ≤ 2 µg/mL
CCNC(=O)Nc1nc2cc(-c3cnc(C(C)O)nc3)cc(-c3cc(CN4CC5(COC5)C4)ccn3)c2s1 (stereo not drawn) [Compound 73, 1-ethyl-3-[5-[2-(1-hydroxyethyl)pyrimidin-5-yl]-7-[4-(6-oxa-2-azaspiro[3.3]heptan-2-ylmethyl)-2-pyridyl]-1,3-benzothiazol-2-yl]urea] | ≤ 1 µg/mL | ≤ 1 µg/mL | ≤ 2 µg/mL
CCNC(=O)Nc1nc2cc(-c3cnc(N4CCC(C)(C(=O)O)CC4)nc3)cc(-c3cc(C(C)(C)O)ccn3)c2s1 [Compound 74, 1-[5-[2-(ethylcarbamoylamino)-7-[4-(1-hydroxy-1-methyl-ethyl)-2-pyridyl]-1,3-benzothiazol-5-yl]pyrimidin-2-yl]-4-methyl-piperidine-4-carboxylic acid] | ≤ 1 µg/mL | ≤ 1 µg/mL | ≤ 2 µg/mL
CCNC(=O)Nc1nc2cc(-c3cnc(C(C)O)nc3)cc(-c3cc(OCCN4CCOCC4)ccn3)c2s1 (stereo not drawn) [Compound 75, 1-ethyl-3-[5-[2-(1-hydroxyethyl)pyrimidin-5-yl]-7-[4-(2-morpholinoethoxy)-2-pyridyl]-1,3-benzothiazol-2-yl]urea] | ≤ 1 µg/mL | ≤ 1 µg/mL | ≤ 2 µg/mL
CCNC(=O)Nc1nc2cc(-c3cnc(C(C)O)nc3)cc(-c3cc(CN4CC(OC)C4)ccn3)c2s1 (stereo not drawn) [Compound 76, 1-ethyl-3-[5-[2-(1-hydroxyethyl)pyrimidin-5-yl]-7-[4-[(3-methoxyazetidin-1-yl)methyl]-2-pyridyl]-1,3-benzothiazol-2-yl]urea] | ≤ 1 µg/mL | ≤ 1 µg/mL | ≤ 2 µg/mL
CCNC(=O)Nc1nc2cc(-c3cnc(C(C)(C)O)nc3)cc(-c3cc(OCCOC)ccn3)c2s1 [Compound 80, 1-ethyl-3-[5-[2-(1-hydroxy-1-methyl-ethyl)pyrimidin-5-yl]-7-[4-(2-methoxyethoxy)-2-pyridyl]-1,3-benzothiazol-2-yl]urea] | ≤ 1 µg/mL | ≤ 1 µg/mL | ≤ 2 µg/mL
CCNC(=O)Nc1nc2cc(-c3cnc(C(O)CN4CCOCC4)nc3)cc(-c3ccccn3)c2s1 (stereo not drawn) [Compound 81, 1-ethyl-3-[5-[2-(1-hydroxy-2-morpholino-ethyl)pyrimidin-5-yl]-7-(2-pyridyl)-1,3-benzothiazol-2-yl]urea] | ≤ 1 µg/mL | ≤ 1 µg/mL | ≤ 2 µg/mL
CNC(=O)Nc1nc2cc(-c3cnc(C(C)(C)O)nc3)cc(-c3ccccn3)c2s1 [Compound 82, 1-[5-[2-(1-hydroxy-1-methyl-ethyl)pyrimidin-5-yl]-7-(2-pyridyl)-1,3-benzothiazol-2-yl]-3-methyl-urea] | ≤ 1 µg/mL | ≤ 1 µg/mL | ≤ 2 µg/mL
CNC(=O)Nc1nc2cc(-c3cnc(C(C)O)nc3)cc(-c3ccccn3)c2s1 (stereo not drawn) [Compound 83, 1-[5-[2-(1-hydroxyethyl)pyrimidin-5-yl]-7-(2-pyridyl)-1,3-benzothiazol-2-yl]-3-methyl-urea] | ≤ 1 µg/mL | ≤ 1 µg/mL | ≤ 2 µg/mL
CCNC(=O)Nc1nc2cc(-c3cnc(C(C)(C)O)nc3)cc(-c3cc(N4CCC(C)(C(=O)O)CC4)ncn3)c2s1 [Compound 87, 1-[6-[2-(ethylcarbamoylamino)-5-[2-(1-hydroxy-1-methyl-ethyl)pyrimidin-5-yl]-1,3-benzothiazol-7-yl]pyrimidin-4-yl]-4-methyl-piperidine-4-carboxylic acid] | ≤ 1 µg/mL | ≤ 1 µg/mL | ≤ 2 µg/mL
CCNC(=O)Nc1nc2cc(-c3cnc(N4CCC(C)(C(=O)O)CC4)nc3)cc(-c3cc(C(C)O)ccn3)c2s1 (stereo not drawn) [Compound 88, 1-[5-[2-(ethylcarbamoylamino)-7-[4-(1-hydroxyethyl)-2-pyridyl]-1,3-benzothiazol-5-yl]pyrimidin-2-yl]-4-methyl-piperidine-4-carboxylic acid] | ≤ 1 µg/mL | ≤ 1 µg/mL | ≤ 2 µg/mL
CCNC(=O)Nc1nc2cc(-c3cnc(C(C)O)nc3)cc(-c3cc(OCCOC)ccn3)c2s1 (stereo not drawn) [Compound 92, 1-ethyl-3-[5-[2-(1-hydroxyethyl)pyrimidin-5-yl]-7-[4-(2-methoxyethoxy)-2-pyridyl]-1,3-benzothiazol-2-yl]urea] | ≤ 1 µg/mL | ≤ 1 µg/mL | ≤ 2 µg/mL
CCNC(=O)Nc1nc2cc(-c3ccc(C(C)O)nc3)cc(-c3ccccn3)c2s1 (stereo not drawn) [Compound 95, 1-ethyl-3-[5-[6-(1-hydroxyethyl)-3-pyridyl]-7-(2-pyridyl)-1,3-benzothiazol-2-yl]urea] | ≤ 1 µg/mL | ≤ 1 µg/mL | ≤ 2 µg/mL
CCNC(=O)Nc1nc2cc(-c3ccc(C(O)C(F)(F)F)nc3)cc(-c3ccccn3)c2s1 (stereo not drawn) [Compound 96, 1-ethyl-3-[7-(2-pyridyl)-5-[6-(2,2,2-trifluoro-1-hydroxy-ethyl)-3-pyridyl]-1,3-benzothiazol-2-yl]urea] | ≤ 1 µg/mL | ≤ 1 µg/mL | ≤ 2 µg/mL
